≈ marks a conversion by molar mass, not a printed value.
Key:
[1] = system: ANKA strain of P. berghei; test: single dose STI in vivo screen in infected mice; set-up: species or system Plasmodium berghei; settings: for Activity (%) po / Activity (%) sc / Activity (%) SSVpo: percent reduction in parasitemia day 3 post-infection, mice; for Activity (%) po / Survival (days) po: single 10 mg/kg po in 3% ethanol and 7% Tween 80; for Activity (%) sc / Survival (days) sc: single 10 mg/kg sc in 3% ethanol and 7% Tween 80; for Survival (days) po / Survival (days) sc / Survival (days) SSVpo: untreated control 5.6 ± 0.3; for Activity (%) SSVpo: single po dose in standard suspending vehicle (SSV); for Survival (days) SSVpo: single po dose in SSV
How it was run: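 Groups of 3-5 Moro SPF or NMRI mice infected with the ANKA strain of P. berghei received a single dose of trioxolane on day one post-infection. The compound was given in 3% ethanol and 7% Tween 80 or in SSV (0.5% w/v CMC, 0.5% v/v benzyl alcohol, 0.4% v/v Tween 80, 0.9% w/v sodium chloride in water). Antimalarial activity was scored as percent reduction in parasitemia on day three and as survival time versus untreated controls. Survival to day 30 counted as cure.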

[2] = system: Schistosoma mansoni 21-day-old schistosomules; test: effect on 21-day-old schistosomules in mice; assay type: in vivo; settings: single 200 mg/kg per os, female mice
Protocol: All groups were killed 4 weeks after treatment and the liver and intestine were removed and separated. The liver and intestine were compressed and alive male and female worms could be seen and counted. The effect of the compounds was evaluated by mean total and female worm burden.

[3] = system: P. falciparum NF54 strain (sensitive to standard antimalarials); test: semiautomated microdilution assay, [3H]-hypoxanthine incorporation, NF54 strain; assay type: cell-based, Plasmodium falciparum; settings: NF54 strain, 72 h incubation
How it was run: (§1)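 Intraerythrocytic stages from unsynchronised stock cultures are exposed to test compounds in a semiautomated microdilution format, and fifty percent inhibitory concentrations are then fitted by logit regression.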

[4] = system: P. falciparum K1 strain (Thailand resistant to chloroquine); test: semiautomated microdilution assay, [3H]-hypoxanthine incorporation, K1 strain; assay type: cell-based, Plasmodium falciparum; settings: K1 strain, 72 h incubation
How it was run: as §1

[5] = system: Schistosoma mansoni adult schistosomes (49-day-old); test: effect on adult schistosomes (49-day-old) in mice; assay type: in vivo; settings: for % reduction of adult worms growth at day 49 after per os application of 400 mg/kg, TWR (%) / adult worms at day 49, per os 400 mg/kg, DEAD WORM (%): single 400 mg/kg per os
Protocol: Mice were infected with 100 Schistosoma mansoni cercariae […]. Each group was treated per os with OZ compounds at single doses of 200, 400, and 600 mg/kg. […] All groups were killed 4 weeks after treatment and the liver and intestine were removed and separated. The liver and intestine were compressed and alive male and female worms could be seen and counted.

| Structure (SMILES) | Activity (%) po [1] | Activity (%) sc [1] | Survival (days) po [1] | Survival (days) sc [1] | % reduction of schistosomule growth at day 21 after per os application of 200 mg/kg, FWR (%) [2] [%] | % reduction of schistosomule growth at day 21 after per os application of 200 mg/kg, TWR (%) [2] [%] | IC50 (ng/ml) NF54 [3] | IC50 (ng/ml) K1 [4] | % reduction of adult worms growth at day 49 after per os application of 400 mg/kg, TWR (%) [5] | adult worms at day 49, per os 400 mg/kg, DEAD WORM (%) [5] | % reduction of adult worms growth at day 49 after per os application of 600 mg/kg, TWR (%) ([5]; single 600 mg/kg per os) | adult worms at day 49, per os 600 mg/kg, DEAD WORM (%) ([5]; single 600 mg/kg per os) | Activity (%) SSVpo [1] [%] | Survival (days) SSVpo [1] [days] | Activity (%) po ([1]; 10 mg/kg) [%] | Survival (days) po ([1]; 10 mg/kg) [days] | Survival (days) sc ([1]; 10 mg/kg) [days] |
| --- | --- | --- | --- | --- | --- | --- | --- | --- | --- | --- | --- | --- | --- | --- | --- | --- | --- |
| C1C2CC3CC1CC(C2)C31OOC2(O1)C1CC3CC(C1)CC2C3 (stereo not drawn) [OZ04] | 0/NA/0^1% | 0/NA/0^1% | 5.3/NA/5.3^1 days | 5.3/NA/5.3^1 days | 7 | 7 | >100/>100 ng/ml | >100/>100 ng/ml | 0/0% | 0/0% | – | – | – | – | – | – | – |
| C1COC2(CCC3(CC2)OOC2(O3)C3CC4CC(C3)CC2C4)O1 (stereo not drawn) [OZ10] | 99.6% | 99.98% | 8.9 days | 10.5 days | 73 | 66 | 0.67 ng/mL (≈ 2.08 nM) | 0.40 ng/mL (≈ 1.24 nM) | 28% | 13% | 21 | 23% | – | – | – | – | – |
| O=C1CC2CC3(CC2C1)OOC1(O3)C2CC3CC(C2)CC1C3 (stereo not drawn) [OZ12] | 75% | 99.8% | 7.0 days | 9.3 days | 79 | 78 | – | – | 14% | 0% | – | – | – | – | – | – | – |
| O=C1C2C3CC4C5C3C1C5C1(OOC3(O1)C1CC5CC(C1)CC3C5)C42 (stereo not drawn) [OZ14] | 23% | 96% | 6.0 days | 7.7 days | 0 | 7 | > 100 ng/mL | 91 ng/mL (≈ 267 nM) | 0/0% | 0/0% | – | – | – | – | – | – | – |
| CON=C1CCC2(CC1)OOC1(O2)C2CC3CC(C2)CC1C3 (stereo not drawn) [OZ15] | 99.8% | 99.9% | 7.4 days | 8.2 days | 70 | 63 | 1.0 ng/mL (≈ 3.25 nM) | 0.60 ng/mL (≈ 1.95 nM) | 0% | 10% | – | – | 88 | 6.8 | – | – | – |
| CC(C)(C)C1CCC2(CC1)OOC1(O2)C2CC3CC(C2)CC1C3 (stereo not drawn) [OZ18] | 0/NA/0% | 0/NA/0% | 5.0 days | 5.3 days | 9 | 12 | 84 ng/mL (≈ 262 nM) | 63 ng/mL (≈ 197 nM) | 0/0% | 0/0% | – | – | – | – | – | – | – |
| C1CCCCCC2(CCCCC1)OOC1(O2)C2CC3CC(C2)CC1C3 (stereo not drawn) [OZ20] | – | – | – | – | 0 | 0 | 20 ng/mL (≈ 57.4 nM) | 15 ng/mL (≈ 43 nM) | 0/0% | 0/0% | – | – | – | – | – | – | – |
| O=C1CCC2(CC1)OOC1(CCCCCCCCCCC1)O2 [OZ21] | 0/NA/0% | 0/NA/0% | 5.0 days | 6.0 days | 20 | 18 | 25 ng/mL (≈ 80.5 nM) | 14 ng/mL (≈ 45.1 nM) | 0/0% | 0/0% | – | – | – | – | – | – | – |
| CCOC(=O)N1CCC2(CC1)OOC1(O2)C2CC3CC(C2)CC1C3 (stereo not drawn) [OZ23] | 99.5% | 99.9% | 7.7 days | 8.9 days | 84 | 90 | 0.57 ng/mL (≈ 1.69 nM) | 0.29 ng/mL (≈ 0.859 nM) | 0% | 4% | – | – | 99.34 | 7.0 | – | – | – |
| c1ccc2c(c1)COC1(CCC3(CC1)OOC1(O3)C3CC4CC(C3)CC1C4)OC2 (stereo not drawn) [OZ31] | 99.95% | 99.95% | 9.0 days | 17.7 days | 63 | 60 | – | – | 4/4% | 4/4% | – | – | 90 | 7.3 | – | – | – |
| C1CCN(C2CCC3(CC2)OOC2(O3)C3CC4CC(C3)CC2C4)CC1 (stereo not drawn) [OZ159] | 34% | 98% | 6.7 days | 9.0 days | 19 | 19 | 0.94 ng/mL (≈ 2.71 nM) | 0.70 ng/mL (≈ 2.01 nM) | – | – | – | – | 31 | 6.7 | – | – | – |
| c1ccc(CNC2CCC3(CC2)OOC2(O3)C3CC4CC(C3)CC2C4)cc1 (stereo not drawn) [OZ160] | 45% | 99.94% | 6.3 days | 12.0 days | 0 | 15 | 0.87 ng/mL (≈ 2.35 nM) | 0.70 ng/mL (≈ 1.89 nM) | – | – | – | – | 43 | 6.7 | – | – | – |
| NC[C@H]1CC[C@]2(CC1)OOC1(O2)C2CC3CC(C2)CC1C3 (stereo partly drawn) [OZ163] | – | 100% | – | – | 80 | – | 0.2/0.2 ng/ml | 0.2/0.2 ng/ml | – | – | – | – | 99.94 | 9.0 | 99.90 | 8.0 | 9.7 |
| C1C2CC3CC1CC(C2)C31OOC2(CCC3(CC2)OOC2(O3)C3CC4CC(C3)CC2C4)O1 (stereo not drawn) [OZ169] | 98% | 99.76% | 7.7 days | 9.0 days | 0 | 0 | > 10 ng/mL | 15 ng/mL (≈ 33.7 nM) | – | – | – | – | 22 | 6.7 | – | – | – |
| NCCOc1ccc([C@H]2CC[C@]3(CC2)OO[C@]2(O3)C3CC4CC(C3)CC2C4)cc1 [OZ323] | – | – | – | – | 97 | 95 | 1.1 ng/mL (≈ 2.75 nM) | 0.85 ng/mL (≈ 2.13 nM) | 20% | 23% | – | – | – | – | – | – | – |
| O=C(C1CCCCC1)N1CC(=O)N2CCc3ccccc3C2C1 (stereo not drawn) [PRAZIQUANTEL, praziquantel, reference compound] | – | – | – | – | 0 | 0 | – | – | 96/96% | 96/96% | – | 100/100% | – | – | – | – | – |

Source: US6906205B2, “Spiro and dispiro 1,2,4-trioxolane antimalarials” (Medicines for Malaria Venture MMV, priority 2002, dated 2005)
